{"source": "PubChem BioAssay AID1963970", "about": "(Molecular Pharmacology Branch, DTP, NCI, 2024)", "system": "931267-113-T-J1-PDC multicell spheroid viability", "assay": "Anticancer human tumor 931267-113-T-J1-PDC patient-derived colon adenocarcinoma cell line growth inhibition [PI3K]", "details": "for pIC50: curve of first compound; for viability, T/C: stronger effect = lower value", "summary_of_the_method": "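Combination activity was assessed by viability in multicellular tumor spheroids carrying HUVEC and MSC components. Agents were tested with PI3K inhibitors from a Cmax-based top dose (or 10 microM) downward in half-log increments.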", "key": {"[1]": {"details": "second compound 0.0316 µM, first compound 0.0316 µM"}, "[2]": {"details": "second compound 0.0316 µM, first compound 0.1 µM"}, "[3]": {"details": "second compound 0.1 µM, first compound 0.0316 µM"}, "[4]": {"details": "second compound 0.1 µM, first compound 0.1 µM"}, "[5]": {"details": "second compound 0.316 µM, first compound 0.0316 µM"}, "[6]": {"details": "second compound 0.316 µM, first compound 0.1 µM"}, "[7]": {"details": "second compound 1 µM, first compound 0.0316 µM"}, "[8]": {"details": "second compound 1 µM, first compound 0.1 µM"}}, "note": "pIC50: −log10 of the molar value. Several values for one entry are separate records, joined by “and”; a condition that tells them apart may be missing. Equal entries are not always repeated.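 Also: viability read 7 days after compound addition.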"}
{"smiles": "CC1(C)CCC(Nc2ncc(C(F)(F)F)c(-c3c[nH]c4c(P(C)(C)=O)c(C#N)ccc34)n2)CN1", "note": "(stereo unspecified) + Cc1nc(NC(=O)N2CCCC2C(N)=O)sc1-c1ccnc(C(C)(C)C(F)(F)F)c1", "values": [{"measurement": "pIC50", "setting": "second compound 0.0316 µM", "value": "< 5.00"}, {"measurement": "pIC50", "setting": "second compound 0.1 µM", "value": "< 5.00"}, {"measurement": "pIC50", "setting": "second compound 0.316 µM", "value": "< 5.00"}, {"measurement": "pIC50", "setting": "second compound 1 µM", "value": "< 5.00"}, {"measurement": "pIC50", "setting": "second compound 3.16 µM", "value": 5.03}, {"measurement": "pIC50", "setting": "second compound 10 µM", "value": 5.48}, {"measurement": "viability, T/C", "setting": "[1]", "value": 101, "unit": "%"}, {"measurement": "viability, T/C", "setting": "[2]", "value": 93.7, "unit": "%"}, {"measurement": "viability, T/C", "setting": "second compound 0.0316 µM, first compound 0.316 µM", "value": 83.2, "unit": "%"}, {"measurement": "viability, T/C", "setting": "second compound 0.0316 µM, first compound 1 µM", "value": 74.1, "unit": "%"}, {"measurement": "viability, T/C", "setting": "second compound 0.0316 µM, first compound 3.16 µM", "value": 70.9, "unit": "%"}, {"measurement": "viability, T/C", "setting": "second compound 0.0316 µM, first compound 10 µM", "value": 58.2, "unit": "%"}, {"measurement": "viability, T/C", "setting": "[3]", "value": 94.5, "unit": "%"}, {"measurement": "viability, T/C", "setting": "[4]", "value": 70.2, "unit": "%"}, {"measurement": "viability, T/C", "setting": "second compound 0.1 µM, first compound 0.316 µM", "value": 70.7, "unit": "%"}, {"measurement": "viability, T/C", "setting": "second compound 0.1 µM, first compound 1 µM", "value": 70.5, "unit": "%"}, {"measurement": "viability, T/C", "setting": "second compound 0.1 µM, first compound 3.16 µM", "value": 77.9, "unit": "%"}, {"measurement": "viability, T/C", "setting": "second compound 0.1 µM, first compound 10 µM", "value": 58, "unit": "%"}, {"measurement": "viability, T/C", "setting": "[5]", "value": 79.6, "unit": "%"}, {"measurement": "viability, T/C", "setting": "[6]", "value": 79, "unit": "%"}, {"measurement": "viability, T/C", "setting": "second compound 0.316 µM, first compound 0.316 µM", "value": 80.4, "unit": "%"}, {"measurement": "viability, T/C", "setting": "second compound 0.316 µM, first compound 1 µM", "value": 67.6, "unit": "%"}, {"measurement": "viability, T/C", "setting": "second compound 0.316 µM, first compound 3.16 µM", "value": 74.5, "unit": "%"}, {"measurement": "viability, T/C", "setting": "second compound 0.316 µM, first compound 10 µM", "value": 54.6, "unit": "%"}, {"measurement": "viability, T/C", "setting": "[7]", "value": 82, "unit": "%"}, {"measurement": "viability, T/C", "setting": "[8]", "value": 77.6, "unit": "%"}, {"measurement": "viability, T/C", "setting": "second compound 1 µM, first compound 0.316 µM", "value": 70.7, "unit": "%"}, {"measurement": "viability, T/C", "setting": "second compound 1 µM, first compound 1 µM", "value": 69.6, "unit": "%"}, {"measurement": "viability, T/C", "setting": "second compound 1 µM, first compound 3.16 µM", "value": 62.3, "unit": "%"}, {"measurement": "viability, T/C", "setting": "second compound 1 µM, first compound 10 µM", "value": 52.2, "unit": "%"}, {"measurement": "viability, T/C", "setting": "second compound 3.16 µM, first compound 0.0316 µM", "value": 75, "unit": "%"}, {"measurement": "viability, T/C", "setting": "second compound 3.16 µM, first compound 0.1 µM", "value": 65.5, "unit": "%"}, {"measurement": "viability, T/C", "setting": "second compound 3.16 µM, first compound 0.316 µM", "value": 60.6, "unit": "%"}, {"measurement": "viability, T/C", "setting": "second compound 3.16 µM, first compound 1 µM", "value": 63.2, "unit": "%"}, {"measurement": "viability, T/C", "setting": "second compound 3.16 µM, first compound 3.16 µM", "value": 61.5, "unit": "%"}, {"measurement": "viability, T/C", "setting": "second compound 3.16 µM, first compound 10 µM", "value": 46, "unit": "%"}, {"measurement": "viability, T/C", "setting": "second compound 10 µM, first compound 0.0316 µM", "value": 54, "unit": "%"}, {"measurement": "viability, T/C", "setting": "second compound 10 µM, first compound 0.1 µM", "value": 50.6, "unit": "%"}, {"measurement": "viability, T/C", "setting": "second compound 10 µM, first compound 0.316 µM", "value": 49.8, "unit": "%"}, {"measurement": "viability, T/C", "setting": "second compound 10 µM, first compound 1 µM", "value": 47, "unit": "%"}, {"measurement": "viability, T/C", "setting": "second compound 10 µM, first compound 3.16 µM", "value": 52.7, "unit": "%"}, {"measurement": "viability, T/C", "setting": "second compound 10 µM, first compound 10 µM", "value": 30.4, "unit": "%"}]}
{"smiles": "Cn1ncnc1[C@H]1c2n[nH]c(=O)c3cc(F)cc(c23)N[C@@H]1c1ccc(F)cc1", "note": "+ CC(Nc1ccc2c(c1)OCCn1cc(N3C(=O)OCC3C(F)F)nc1-2)C(N)=O", "values": [{"measurement": "pIC50", "setting": "second compound 0.00316 µM", "value": "< 7.00"}, {"measurement": "pIC50", "setting": "second compound 0.01 µM", "value": "< 7.00"}, {"measurement": "pIC50", "setting": "second compound 0.0316 µM", "value": "< 7.00"}, {"measurement": "pIC50", "setting": "second compound 0.1 µM", "value": "< 7.00"}, {"measurement": "pIC50", "setting": "second compound 0.316 µM", "value": "< 7.00"}, {"measurement": "pIC50", "setting": "second compound 1 µM", "value": "< 7.00"}, {"measurement": "viability, T/C", "setting": "second compound 0.00316 µM, first compound 0.000316 µM", "value": 98.5, "unit": "%"}, {"measurement": "viability, T/C", "setting": "second compound 0.00316 µM, first compound 0.001 µM", "value": 113, "unit": "%"}, {"measurement": "viability, T/C", "setting": "second compound 0.00316 µM, first compound 0.00316 µM", "value": 104, "unit": "%"}, {"measurement": "viability, T/C", "setting": "second compound 0.00316 µM, first compound 0.01 µM", "value": 111, "unit": "%"}, {"measurement": "viability, T/C", "setting": "second compound 0.00316 µM, first compound 0.0316 µM", "value": 103, "unit": "%"}, {"measurement": "viability, T/C", "setting": "second compound 0.00316 µM, first compound 0.1 µM", "value": 102, "unit": "%"}, {"measurement": "viability, T/C", "setting": "second compound 0.01 µM, first compound 0.000316 µM", "value": 114, "unit": "%"}, {"measurement": "viability, T/C", "setting": "second compound 0.01 µM, first compound 0.001 µM", "value": 108, "unit": "%"}, {"measurement": "viability, T/C", "setting": "second compound 0.01 µM, first compound 0.00316 µM", "value": 91.5, "unit": "%"}, {"measurement": "viability, T/C", "setting": "second compound 0.01 µM, first compound 0.01 µM", "value": 114, "unit": "%"}, {"measurement": "viability, T/C", "setting": "second compound 0.01 µM, first compound 0.0316 µM", "value": 104, "unit": "%"}, {"measurement": "viability, T/C", "setting": "second compound 0.01 µM, first compound 0.1 µM", "value": 108, "unit": "%"}, {"measurement": "viability, T/C", "setting": "second compound 0.0316 µM, first compound 0.000316 µM", "value": 109, "unit": "%"}, {"measurement": "viability, T/C", "setting": "second compound 0.0316 µM, first compound 0.001 µM", "value": 96.9, "unit": "%"}, {"measurement": "viability, T/C", "setting": "second compound 0.0316 µM, first compound 0.00316 µM", "value": 105, "unit": "%"}, {"measurement": "viability, T/C", "setting": "second compound 0.0316 µM, first compound 0.01 µM", "value": 103, "unit": "%"}, {"measurement": "viability, T/C", "setting": "[1]", "value": 108, "unit": "%"}, {"measurement": "viability, T/C", "setting": "[2]", "value": 102, "unit": "%"}, {"measurement": "viability, T/C", "setting": "second compound 0.1 µM, first compound 0.000316 µM", "value": 101, "unit": "%"}, {"measurement": "viability, T/C", "setting": "second compound 0.1 µM, first compound 0.001 µM", "value": 87.5, "unit": "%"}, {"measurement": "viability, T/C", "setting": "second compound 0.1 µM, first compound 0.00316 µM", "value": 86.1, "unit": "%"}, {"measurement": "viability, T/C", "setting": "second compound 0.1 µM, first compound 0.01 µM", "value": 89.1, "unit": "%"}, {"measurement": "viability, T/C", "setting": "[3]", "value": 95.2, "unit": "%"}, {"measurement": "viability, T/C", "setting": "[4]", "value": 87, "unit": "%"}, {"measurement": "viability, T/C", "setting": "second compound 0.316 µM, first compound 0.000316 µM", "value": 95.6, "unit": "%"}, {"measurement": "viability, T/C", "setting": "second compound 0.316 µM, first compound 0.001 µM", "value": 89.6, "unit": "%"}, {"measurement": "viability, T/C", "setting": "second compound 0.316 µM, first compound 0.00316 µM", "value": 81.2, "unit": "%"}, {"measurement": "viability, T/C", "setting": "second compound 0.316 µM, first compound 0.01 µM", "value": 80.4, "unit": "%"}, {"measurement": "viability, T/C", "setting": "[5]", "value": 85.1, "unit": "%"}, {"measurement": "viability, T/C", "setting": "[6]", "value": 94.1, "unit": "%"}, {"measurement": "viability, T/C", "setting": "second compound 1 µM, first compound 0.000316 µM", "value": 78.2, "unit": "%"}, {"measurement": "viability, T/C", "setting": "second compound 1 µM, first compound 0.001 µM", "value": 82, "unit": "%"}, {"measurement": "viability, T/C", "setting": "second compound 1 µM, first compound 0.00316 µM", "value": 80.7, "unit": "%"}, {"measurement": "viability, T/C", "setting": "second compound 1 µM, first compound 0.01 µM", "value": 76.9, "unit": "%"}, {"measurement": "viability, T/C", "setting": "[7]", "value": 84.6, "unit": "%"}, {"measurement": "viability, T/C", "setting": "[8]", "value": 73.6, "unit": "%"}]}
{"smiles": "C#Cc1c(F)ccc2cc(O)cc(-c3ncc4c(N5CC6CCC(C5)N6)nc(OCC56CCCN5CC(F)C6)nc4c3F)c12", "note": "(stereo unspecified)", "values": [{"measurement": "viability, T/C", "setting": "compound 0.0316 µM", "value": "85% [middle of 4 runs]"}, {"measurement": "viability, T/C", "setting": "compound 0.1 µM", "value": "71.4% [middle of 4 runs]"}, {"measurement": "viability, T/C", "setting": "compound 0.316 µM", "value": "58.2% [middle of 4 runs]"}, {"measurement": "viability, T/C", "setting": "compound 1 µM", "value": "44.2% [middle of 4 runs]"}, {"measurement": "viability, T/C", "setting": "compound 3.16 µM", "value": "36.2% [middle of 4 runs]"}, {"measurement": "viability, T/C", "setting": "compound 10 µM", "value": "24% and 25.4% and 23.7% (2×)"}, {"measurement": "IC50", "setting": "curve of compound", "value": "670 nM [middle of 4 runs]"}]}
